US11884653B2, “Arylnaphthalene compounds as vacuolar-ATPase inhibitors and the use thereof” (Purdue Research Foundation, priority 2018, dated 2024)

Target: V-ATPase
Assay: acridine orange quenching (proton-pumping function of V-ATPase) in isolated HEK293 vesicles
Assay type: biochemical
Details: read-out: AO Quenching IC50
Experimental: To assess if ability of diphyllin and derivatives to inhibit endosomal acidification is due to the expected ability of diphyllin to inhibit V-ATPase activity, compounds were assayed for inhibition of both the proton-pumping and ATPase functions of the isolated V-ATPase enzyme. V-ATPase containing vesicles were isolated from HEK293 cells following methods similar to that found in […]. (Zoncu, R. et al., Science 2011, 334, 678-683). To determine the effect of compounds upon the proton pumping function of V-ATPase, isolated vesicles were incubated with acridine orange and the compound or vehicle for 1 h prior to the addition of ATP which initiated pump activity. The quenching of the 530 nm emission of acridine orange was measured over 1h before addition of nigericin to relax the proton gradient within vesicles. IC50 values against the proton-pumping function of V-ATPase could be assessed by quantifying the change in Acridine Orange (AO) fluorescence immediately before and after the addition of nigericin.
HEK293 vesicle isolation-Cells were grown to confluency in a 175 cm^2 flask (Corning) before growth media was removed and replaced with serum-free DMEM for 2 h. 1 μM FCCP in DMEM was then added for 15 min before cells were scrapped form the plate and pelleted at 1000×g for 5 min. […]

`COc1cc2c(OCCCN3CCN(CCO)CC3)c3c(c(-c4ccc5c(c4)OCO5)c2cc1OC)C(=O)OC3` [Compound 2i, 9-(benzo[d][1,3]dioxol-5-yl)-4-(3-(4-(2-hydroxyethyl)piperazin-1-yl)propoxy)-6,7-dimethoxynaphtho[2,3-c]furan-1(3H)-one] was tested, and the IC50 was 0.061 ± 0.00284 µM.
